Data as given in paper PMC12652692, “Synthesis and In Vitro Anticancer Evaluation of Novel Phosphonium Derivatives of Chrysin” (International Journal of Molecular Sciences, 2025).

Tests used:
Test in all cases: NCI60 one-dose screen
Type in all cases: cell-based
786-0 = settings: Homo sapiens; 786-0, 10 μM; read-out: Growth percent
Method: (§1) The screening results are presented in the Supplementary Materials (Table S1), where the cytotoxicity was determined for the 10 µM concentration. […] The negative numbers indicate significant decreases in the cell number. […] Compared to the reference chrysin (2), all phosphonium hybrids (3a–h) had significant antiproliferative activities. […] At the same time, it should be noted that more than 60% average reduction was also obtained in the case of the other examined conjugates (3a–h).
(§2) A detailed description of the NCI screening procedures, including the one-dose and five-dose tests, can be found in the Supplementary Materials, on the website of NCI [39], and in our previous work.
(§3) A detailed description of the NCI screening procedures can also be found on the website of NCI [39], and in our […]
(§4) All candidates were examined at first at a single high dose (10 μM) in the full NCI60 cell panel. The value reported for the one-dose test is growth relative to the no-drug control and relative to the time zero number of cells. This made possible the disclosure of both growth inhibition (numbers between 0 and 100) and lethality (numbers less than 0). For example, a value of 100 means no growth inhibition. A value of 20 would mean 80% growth inhibition. A value of 0 means no net growth over the course of the analysis. A value of −20 would mean 20% lethality. A value of −100 means all cells are dead. […]
(§5) concentration levels. The human tumor cell lines of the cancer screening panel were grown in RPMI 1640 medium containing 5% fetal bovine serum and 2 mM l-glutamine. Characteristically, cells were injected in 96-well microtiter plates in 0.1 mL at plating densities ranging from 5000 to 40,000 cells/well, depending on the doubling time of individual cell lines. After cell inoculation, the microtiter plates were incubated at 37 °C, 5% carbon dioxide, 95% air, and 100% relative humidity for 24 hours before the addition of tested compounds. After 24 hours, 2 plates of each cell line were fixed in situ with Cl3COOH (TCA), to represent a measurement of the cell population for each cell line at the time of drug addition (tz). Tested compounds were solubilized in DMSO at 400-fold the desired final maximum test concentration and stored frozen before application. In the course of the drug addition, an aliquot of frozen concentrate was thawed and diluted to twice the desired final maximum test concentration with a complete medium containing 50 μg mL−1 gentamicin. Additional four, 10-fold or ½ log serial dilutions were produced to furnish a total of five drug concentrations plus control. Aliquots of 0.1 mL of these different drug dilutions were added to the appropriate microtiter wells already containing 0.1 mL of medium, resulting in the required final drug concentrations.
(§6) Following drug addition, the plates were incubated at 37 °C, 5% carbon dioxide, 95% air, and 100% relative humidity for an additional 48 hours. For adherent cells, the test was finished by the addition of cold Cl3COOH. Cells were fixed in situ by the addition of 50 μL of cold 50% (w/v) Cl3COOH, and incubated at 4 °C for 1 hour. The supernatant was discarded, and the plates were washed with H2O (5×) and dried in air. Sulforhodamine B (SRB) solution (0.1 mL) at 0.4% (w/v) in 1% CH3COOH was added to each well, and plates were incubated at RT for 10 min. After staining, the unbound dye was removed by washing five times with 1% CH3COOH, and the plates were dried in the air. The bound stain is afterward solubilized with a 10 mM trizma base, and the absorbance is read on an automated plate reader at λ = 515 nm. Utilizing the seven absorbance measurements [time zero (tz), control growth (c), and test growth in the presence of the drug at the five concentration levels (ti)], the percentage growth was determined at each of the drug concentration levels. Growth inhibition (%) was calculated as:
(§7) [(ti − tz)/(c − tz)] × 100, for concentrations where ti ≥ tz (1) […]

A549/ATCC = settings: Homo sapiens, read-out: Growth percent
Method: as §1, §2, §3, §4, §5, §6, §7

ACHN = settings: Homo sapiens, read-out: Growth percent
Method: as §1, §2, §3, §4, §5, §6, §7

BT-549 = settings: Homo sapiens; BT-549, 10 μM; read-out: Growth percent
Method: as §1, §2, §3, §4, §5, §6, §7

HCT-15 = settings: Homo sapiens; HCT-15, 10 μM; read-out: Growth percent
Method: as §1, §2, §3, §4, §5, §6, §7

KM12 = settings: Homo sapiens; KM12, 10 μM; read-out: Growth percent
Method: as §1, §2, §3, §4, §5, §6, §7

MDA-MB-435 = settings: Homo sapiens; MDA-MB-435, 10 μM; read-out: Growth percent
Method: as §1, §2, §3, §4, §5, §6, §7

MDA-MB-468 = settings: Homo sapiens; MDA-MB-468, 10 μM; read-out: Growth percent
Method: as §1, §2, §3, §4, §5, §6, §7

NCI-H460 = settings: Homo sapiens; NCI-H460, 10 μM; read-out: Growth percent
Method: as §1, §2, §3, §4, §5, §6, §7

NCI/ADR-RES = settings: Homo sapiens, read-out: Growth percent
Method: as §1, §2, §3, §4, §5, §6, §7

RPMI-8226 = settings: Homo sapiens; RPMI-8226, 10 μM; read-out: Growth percent
Method: as §1, §2, §3, §4, §5, §6, §7

SF-295 = settings: Homo sapiens; SF-295, 10 μM; read-out: Growth percent
Method: as §1, §2, §3, §4, §5, §6, §7

SK-MEL-2 = settings: Homo sapiens; SK-MEL-2, 10 μM; read-out: Growth percent
Method: as §1, §2, §3, §4, §5, §6, §7

SK-MEL-5 = settings: Homo sapiens; SK-MEL-5, 10 μM; read-out: Growth percent
Method: as §1, §2, §3, §4, §5, §6, §7

SK-OV-3 = settings: Homo sapiens; SK-OV-3, 10 μM; read-out: Growth percent
Method: as §1, §2, §3, §4, §5, §6, §7

SNB-75 = settings: Homo sapiens; SNB-75, 10 μM; read-out: Growth percent
Method: as §1, §2, §3, §4, §5, §6, §7

SW-620 = settings: Homo sapiens; SW-620, 10 μM; read-out: Growth percent
Method: as §1, §2, §3, §4, §5, §6, §7

TK-10 = settings: Homo sapiens; TK-10, 10 μM; read-out: Growth percent
Method: as §1, §2, §3, §4, §5, §6, §7

U251 = settings: Homo sapiens, U-251; U251, 10 μM; read-out: Growth percent
Method: as §1, §2, §3, §4, §5, §6, §7

UACC-257 = settings: Homo sapiens; UACC-257, 10 μM; read-out: Growth percent
Method: as §1, §2, §3, §4, §5, §6, §7

Work on O=c1cc(-c2ccccc2)oc2cc(O)cc(O)c12 [compound 2, 5,7-dihydroxyflavone, reference compound] yielded an activity at 10 µM (786-0) of 99.2%, an activity at 10 µM (A549/ATCC) of 98.5% and an activity at 10 µM (ACHN) of 85%. For the same compound, the activity at 10 µM (BT-549) was 91%, the activity at 10 µM (HCT-15) was 81% and the activity at 10 µM (KM12) was 92.9%. For the same compound, the activity at 10 µM (MDA-MB-435) was 99.5%, the activity at 10 µM (MDA-MB-468) was 91.1% and the activity at 10 µM (NCI-H460) was 98.3%. It also gave an activity at 10 µM (NCI/ADR-RES) of 92.8%, an activity at 10 µM (RPMI-8226) of 101% and an activity at 10 µM (SF-295) of 99.9%. The activity at 10 µM (SK-MEL-2) was 110%, the activity at 10 µM (SK-MEL-5) was 92.8% and the activity at 10 µM (SK-OV-3) was 128%. The activity at 10 µM (SNB-75) was 89%, the activity at 10 µM (SW-620) was 102% and the activity at 10 µM (TK-10) was 107%. For the same compound, the activity at 10 µM (U251) was 80.7% and the activity at 10 µM (UACC-257) was 119%.
